Tests used:
[1] = molecular target: T1, hENPP2 (UniProtKB/SwissProt Q13822) (Homo sapiens (Human), UniProt Q13822); assay: fluorescent hENPP2 biochemical assay, FS-3 as substrate; details: read-out: FS3-IC50
How it was run: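 hENPP2 in 50 mM Tris-HCl pH 8.0, 250 mM NaCl, 5 mM KCl, 1 mM MgCl2, 1 mM CaCl2, 0.1% fatty-acid-free BSA, preincubated with compound 30 min at room temperature. The 0.75 μM FS-3 solution was added and the mixture incubated 30 min at 30° C. Fluorescence (ex 485/em 520 nm) gives IC50.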

[2] = molecular target: T1, hENPP2; assay: hENPP2 biochemical assay, LPC as substrate; details: LPC (palmitoyl 16:0) as substrate
How it was run: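 Human ENPP2 in 50 mM Tris-HCl pH 8.5, 500 mM NaCl, 5 mM KCl, 10 mM CaCl2, 0.1% fatty-acid-free BSA, reacted 30 min at 37 °C with LPC 16:0 (150 µM solution added 1:1). Released choline measured via choline oxidase/peroxidase/TOOS/4-aminoantipyrine quinoneimine dye at 555 nm; IC50 reported.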

| Compound | IC50 [1] [nM] | IC50 [2] [nM] |
| --- | --- | --- |
| CCc1nc2ccc(C3CCN(S(C)(=O)=O)CC3)cn2c1N(C)c1nc(-c2ccc(F)cc2NC(C)=O)cs1 [Compound 106, N-(2-(2-((2-ethyl-6-(1-(methylsulfonyl)piperidin-4-yl)imidazo[1,2-a]pyridin-3-yl)(methyl)amino)thiazol-4-yl)-5-fluorophenyl)acetamide] | 0.01 to 100 | > 1000 |
| CCOC(=O)CN1CC=C(c2ccc3nc(CC)c(N(C)c4nc(-c5ccc(F)cc5)cs4)n3c2)CC1 [Compound 108, ethyl 2-(4-(2-ethyl-3-((4-(4-fluorophenyl)thiazol-2-yl)(methyl)amino)imidazo[1,2-a]pyridin-6-yl)-5,6-dihydropyridin-1(2H)-yl)acetate] | 0.01 to 100 | > 1000 |
| CCOC(=O)CN1CCC(c2ccc3nc(CC)c(N(C)c4nc(-c5ccc(F)cc5)cs4)n3c2)CC1 [Compound 109, ethyl 2-(4-(2-ethyl-3-((4-(4-fluorophenyl)thiazol-2-yl)(methyl)amino)imidazo[1,2-a]pyridin-6-yl)piperidin-1-yl)acetate] | 0.01 to 100 | 100 to 500 |
| CCc1nc2ccc(C3CCN(CC(=O)N4CC[C@H](C#N)C4)CC3)cn2c1N(C)c1nc(-c2ccc(F)cc2)cs1 [Compound 116, (S)-1-(2-(4-(2-ethyl-3-((4-(4-fluorophenyl)thiazol-2-yl)(methyl)amino)imidazol[1,2-a]pyridin-6-yl)piperidin-1-yl)acetoyl)pyrrolidine-3-carbonitrile] | 0.01 to 100 | 100 to 500 |
| CCc1nc2ccc(C3CCN(CC4COC(=O)O4)CC3)cn2c1N(C)c1nc(-c2ccc(F)cc2)cs1 (centres unmarked) [Compound 118, 4-((4-(2-ethyl-3-((4-(4-fluorophenyl)thiazol-2-yl)(methyl)amino)imidazo[1,2-a]pyridin-6-yl)piperidin-1-yl)methyl)-1,3-dioxolan-2-one] | 0.01 to 100 | 100 to 500 |
| CCc1nc2ccc(C3CCN(CC(=O)N4CC(F)(F)C4)CC3)cn2c1N(C)c1nc(-c2ccc(F)cc2)cs1 [Compound 124, 1-(3,3-difluoroazetidin-1-yl)-2-(4-(2-ethyl-3-((4-(4-fluorophenyl)thiazol-2-yl)(methyl)amino)imidazo[1,2-a]pyridin-6-yl)piperidin-1-yl)ethanone] | 0.01 to 100 | > 1000 |
| CCc1nc2ccc(C3CCN(CC(N)=O)CC3)cn2c1N(C)c1nc(-c2ccc(F)cc2)cs1 [Compound 125, 2-(4-(2-ethyl-3-((4-(4-fluorophenyl)thiazol-2-yl)(methyl)amino)imidazo[1,2-a]pyridin-6-yl)piperidin-1-yl)acetamide] | 0.01 to 100 | > 1000 |
| CCc1nc2ccc(C3CCN(C(=O)CN4CCCC4)CC3)cn2c1N(C)c1nc(-c2ccc(F)cc2)cs1 [Compound 126, 1-(4-(2-ethyl-3-((4-(4-fluorophenyl)thiazol-2-yl)(methyl)amino)imidazo[1,2-a]pyridin-6-yl)piperidin-1-yl)-2-(pyrrolidin-1-yl) ethanone] | 0.01 to 100 | 100 to 500 |
| CCc1nc2ccc(C3CCN(C(=O)CN4CC(O)C4)CC3)cn2c1N(C)c1nc(-c2ccc(F)cc2)cs1 [Compound 128, 1-(4-(2-ethyl-3-((4-(4-fluorophenyl)thiazol-2-yl)(methyl)amino)imidazo[1,2-a]pyridin-6-yl)piperidin-1-yl)-2-(3-hydroxyazetidin-1-yl)ethanone] | 0.01 to 100 | 100 to 500 |
| CCc1nc2ccc(C3CCN(C(=O)CN4CC(F)C4)CC3)cn2c1N(C)c1nc(-c2ccc(F)cc2)cs1 [Compound 133, 1-(4-(2-ethyl-3-((4-(4-fluorophenyl)thiazol-2-yl)(methyl)amino)imidazo[1,2-a]pyridin-6-yl)piperidin-1-yl)-2-(3-fluoroazetidin-1-yl)ethanone] | 0.01 to 100 | 100 to 500 |
| CCc1nc2ccc(C3CCN(C4CN(C(C)=O)C4)CC3)cn2c1N(C)c1nc(-c2ccc(F)cc2)cs1 [Compound 134, 1-(3-(4-(2-ethyl-3-((4-(4-fluorophenyl)thiazol-2-yl)(methyl)amino)imidazo[1,2-a]pyridin-6-yl)piperidin-1-yl)azetidin-1-yl)ethanone] | 0.01 to 100 | 500 to 1000 |
| CCc1nc2ccc(C3CCN(S(C)(=O)=O)CC3)cn2c1N(C)c1nc(-c2ccc(F)cc2)c(C(N)=O)s1 [Compound 137, 2-((2-ethyl-6-(1-(methylsulfonyl)piperidin-4-yl)imidazo[1,2-a]pyridin-3-yl)(methyl)amino)-4-(4-fluorophenyl)thiazole-5-carboxamide] | 0.01 to 100 | > 1000 |
| CCc1nc2ccc(C3CCN(CC(=O)N(C)C)CC3)cn2c1N(C)c1nc(-c2ccc(F)cc2)c(CO)s1 [Compound 157, 2-(4-(2-ethyl-3-((4-(4-fluorophenyl)-5-(hydroxymethyl)thiazol-2-yl)(methyl)amino)imidazo[1,2-a]pyridin-6-yl)piperidin-1-yl)-N,N-dimethylacetamide] | 0.01 to 100 | > 1000 |
| CCc1nc2ccc(N3CCN(CC(=O)N(C)C)CC3)cn2c1N(C)c1nc(-c2ccc(F)cc2)c(C(=O)C(F)(F)F)s1 [Compound 158, 2-(4-(2-ethyl-3-((4-(4-fluorophenyl)-5-(2,2,2-trifluoroacetoyl)thiazol-2-yl)(methyl)amino)imidazo[1,2-a]pyridin-6-yl)piperazin-1-yl)-N,N-dimethylacetamide] | 0.01 to 100 | 100 to 500 |
| CCc1nc2ccc(N3CCN(CC(=O)N(C)C)CC3)cn2c1N(C)c1nc(-c2ccc(F)cc2C#N)cs1 [Compound 168, 2-(4-(3-((4-(2-cyano-4-fluorophenyl)thiazol-2-yl)(methyl)amino)-2-ethylimidazo[1,2-a]pyridin-6-yl)piperazin-1-yl)-N,N-dimethylacetamide] | 0.01 to 100 | 0.01 to 100 |
| CCc1nc2ccc(C3CCN(CC(=O)N4CC(O)C4)CC3)cn2c1N(C)c1nc(-c2ccc(F)cc2C#N)c(C)s1 [Compound 172, 2-(2-((2-ethyl-6-(1-(2-(3-hydroxyazetidin-1-yl)-2-oxoethyl)piperidin-4-yl)imidazo[1,2-a]pyridin-3-yl)(methyl)amino)-5-methylthiazol-4-yl)-5-fluorobenzonitrile] | 0.01 to 100 | 100 to 500 |
| CCc1nc2ccc(N3CC(NC(=O)CN4CC(O)C4)C3)cn2c1N(C)c1nc(-c2ccc(F)cc2)cs1 [Compound 179, N-(1-(2-ethyl-3-((4-(4-fluorophenyl)thiazol-2-yl)(methyl)amino)imidazo[1,2-a]pyridin-6-yl)azetidin-3-yl)-2-(3-hydroxyazetidin-1-yl)acetamide] | 0.01 to 100 | > 1000 |
| CCc1nc2ccc(N3CCNC3=O)cn2c1N(C)c1nc(-c2ccc(Cl)cc2)cs1 [Compound 183, 1-(3-((4-(4-chlorophenyl)thiazol-2-yl)(methyl)amino)-2-ethylimidazo[1,2-a]pyridin-6-yl)imidazolidin-2-one] | 0.01 to 100 | > 1000 |
| CCOC(=O)CN1CCN(c2ccc3nc(CC)c(N(C)c4nc(-c5ccc(Cl)cc5)cs4)n3c2)C1=O [Compound 184, ethyl 2-(3-(3-((4-(4-chlorophenyl)thiazol-2-yl)(methyl)amino)-2-ethylimidazo[1,2-a]pyridin-6-yl)-2-oxoimidazolidin-1-yl)acetate] | 0.01 to 100 | > 1000 |
| CN(c1nc(-c2ccc(Cl)cc2)cs1)c1c(CC(F)(F)F)nc2ccc(C3=CCN(S(C)(=O)=O)CC3)cn12 [Compound 185, 4-(4-chlorophenyl)-N-methyl-N-(6-(1-(methylsulfonyl)-1,2,3,6-tetrahydropyridin-4-yl)-2-(2,2,2-tetrahydropyridin-4-yl)-2-(2,2,2-trifluoroethyl)imidazo [1,2-a]pyridin-3-yl) thiazol-2-amine] | 0.01 to 100 | > 1000 |
| CCc1nc2ccc(C3CCN(S(C)(=O)=O)CC3)cn2c1N(C)c1nc(-c2ccc(F)cc2)c(CC#N)s1 [Compound 186, 2-(2-((2-ethyl-6-(1-(methylsulfonyl)piperidin-4-yl)imidazo[1,2-a]pyridin-3-yl)(methyl)amino)-4-(4-fluorophenyl)thiazol-5-yl)acetonitrile] | 0.01 to 100 | > 1000 |
| CCc1nc2ccc(C3=CCN(S(C)(=O)=O)CC3)cn2c1N(C)c1nc(-c2ccc(F)cc2)no1 [Compound 189, N-(2-ethyl-6-(1-(methylsulfonyl)-1,2,3,6-tetrahydropyridin-4-yl)imidazo[1,2-a]pyridin-3-yl)-3-(4-fluorophenyl)-N-methyl-1,2,4-oxadiazol-5-amine] | 0.01 to 100 | > 1000 |
| CCc1nc2ccc(C3CCN(CC(=O)N(C)C)CC3)cn2c1N(C)c1nc(-c2ccc(F)cc2)ns1 [Compound 191, 2-(4-(2-ethyl-3-((3-(4-fluorophenyl)-1,2,4-thiadiazol-5-yl)(methyl)amino)imidazo[1,2-a]pyridin-6-yl)piperidin-1-yl)-N,N-dimethylacetamide] | 0.01 to 100 | > 1000 |
| CCc1nc2ccc(C3CCN(CC(=O)NC4CC4)CC3)cn2c1N(C)c1nc(-c2ccc(F)cc2)cs1 [Compound 194, N-cyclopropyl-2-(4-(2-ethyl-3-((4-(4-fluorophenyl)thiazol-2-yl)(methyl)amino)imidazo[1,2-a]pyridin-6-yl)piperidin-1-yl)acetamide] | 0.01 to 100 | > 1000 |
| CCc1nc2ccc(C3=CCN(S(C)(=O)=O)CC3)cn2c1N(C)c1nc(-c2ccc(F)cc2)ns1 [Compound 199, N-(2-ethyl-6-(1-(methylsulfonyl)-1,2,3,6-tetrahydropyridin-4-yl)imidazo[1,2-a]pyridin-3-yl)-3-(4-fluorophenyl)-N-methyl-1,2,4-thiadiazol-5-amine] | 100 to 500 | > 1000 |

Reference: patent publication US9670204B2, “Compounds and pharmaceutical compositions thereof for the treatment of inflammatory disorders” (Galapagos NV, priority 2013, dated 2017)
